Patent US20040229772A1, “Peptides responsive to antibodies against consensus peptide of the CS4-CFA/I family proteins” (priority 1996, published 2004)

Legend:
Type in all cases: binding
Antibody to CS2 = assay: ELISA of 8-mer peptides (pins) with rabbit serum; conditions: a listed pin number means recognized
Protocol: (§1) Blocks of pins for cleavable syntheses were obtained from Chiron Mimotopes U.S. Peptide synthesis was carried out according to the manufacturer's instructions using Opfp-derivatized amino acids. Peptides of length 8 with 7 overlap were manufactured in order to locate all linear epitopes in the sequence with a highest redundancy. […] Peptides were cleaved from the pins using 0.1 M phosphate buffer, pH 8.0, containing 40% acetonitrile. Two peptides were made and sacrificed for amino acid analysis as proof of peptide purity. A dinitrophenol (DNP) pin was included so that the efficiency of the cleavage could be monitored spectrophotometrically.
(§2) For blocking, a composition containing 5% nonfat dry milk in PBS+0.2% sodium azide was used. Stock streptavidin (Calbiochem Corp., La Jolla, Calif.) at 1 mg/ml in water was kept frozen in aliquots for up to several months. On the day of use, the stock streptavidin was diluted in phosphate buffered saline (PBS) to provide a concentration of 5 μg/ml streptavidin. Goat F(ab′)2 anti-mouse, anti-rabbit and anti-human sera were labeled with alkaline phosphatase (Biosource, International, Camarillo, Calif.).
(§3) Streptavidin was plated at 5 μg/ml, 50 μl per well, and incubated over night at 4° C. Plates were then washed by hand (Nunc Immunowash 12 hand plate washer. Fisher Scientific, Pittsburgh, Pa.) three times with PBS/0.1% TWEEN 20™. Peptides were then diluted to 10 μg/ml in PBS and plated at 50-μl/well. After incubation for one hour at room temperature followed by washing, the peptides were incubated with sera diluted in blocker at appropriate concentrations (5% nonfat dry milk) for 2 hours at room temperature. After washing the wells, 50 μl of phosphatase-labeled anti-serum IgG diluted 1:1000 in blocker was added to each well and was allowed to incubate at room temperature for 1 hour. The plates were washed. The 100 μl of PNDP (p-nitrophenylphosphate) substrate, prepared according to the manufacturer's instructions, was added to each well. Results were read at 5, 15 and 60 minutes using a microtiter plate reader (UVmax™, Moelcular Devices, Sunnyvale, Calif.).
(§4) Partially to fully purified colonization factor (40% to 100% pure) was run on SDS-PAGE gel (5-15 μg/lane of 10 comb gel (precast 10 comb, 1 mm thickness, Tris-tricene gel from Novex, San Diego, Calif.), for primary immunization run 9 lanes for each rabbit (45-135 μg CF protein with ½ the amount used in the primary immunization used as a booster). The gel was stained with 0.5% COOMASSIE BLUE™ (BioRad, Richmond, Calif.) in water for 1 hour, then destained with multiple changes of water for 60-90 minutes. The colonization factor bands were excised with a scalpel and the excess gel trimmed. The bands were stored at −20° C. until use.
(§5) After removal from freezer, the gel slices were transferred to a glass tissue homogenizer using a teflon pestle with grooves at the tip. The slices were ground with 0.3 ml phosphate buffered saline (PBS). The drill was run to homogenize the gel for 30 to 45 seconds. (In the instant case, a pestle with a shaft of steel was used which allowed placement of the pestle into the chuck of the hand-held drill.)
(§6) The homogenate was transferred to 16 mm×150 mm test tubes with disposable plastic transfer pipet. The pestle and homogenizer vessel was rinsed repeatedly with PBS and the contents transferred to the 16×150 test tube until a volume of 1.2 ml was obtained.
(§7) The sample obtained above was placed in a vortex mixer and vortexed on high. Freund's adjuvant 1.2 ml was added. (Complete Freund's was used for the primary immunization, while incomplete Freund's was used for the boost.) The composition was vortexed until a thick emulsion of almost a butter consistency was obtained (12-20 minutes).
(§8) A preimmune serum was obtained on all animals, which were then immunized with the 1 ml of the emulsion subcutaneously at 4-6 spots on the shoulders and rump. The animals were boosted three weeks later, then bleed 10 days after the booster shots. […]

Antibody to CS4 = assay: ELISA of 8-mer peptides (pins) with rabbit serum; conditions: a listed pin number means recognized
Protocol: as §1, §2, §3, §4, §5, §6, §7, §8

Antibody to CS1 = assay: ELISA of 8-mer peptides (pins) with rabbit serum; conditions: a listed pin number means recognized
Protocol: as §1, §2, §3, §4, §5, §6, §7, §8

[1] = test system: antibodies raised to the consensus peptide; assay: ELISA of 8-mer peptides with rabbit antibodies; conditions: for reactivity of 8-mer peptides with antibodies from the rabbits: rabbit antibodies raised to consensus peptide SEQ ID NO:1, biotin-SGSG-peptide on streptavidin; for interaction of peptides with the antibodies raised to the consensus peptide: rabbit antibodies raised to consensus peptide SEQ ID NO:1
Protocol: as §1, §2, §3
Antibodies from the rabbits were then tested against the specific 8-mer peptides obtained from SEQ ID NO:1 in the manner disclosed above to determine the binding sites of the antibodies in the sera with the consensus peptide.

Antibody to CS17 = assay: ELISA of 8-mer peptides (pins) with rabbit serum; conditions: a listed pin number means recognized
Protocol: as §1, §2, §3, §4, §5, §6, §7, §8

Antibody to 0166 upper = assay: ELISA of 8-mer peptides (pins) with rabbit serum
Protocol: as §1, §2, §3, §4, §5, §6, §7, §8

Antibody to 0166 lower = assay: ELISA of 8-mer peptides (pins) with rabbit serum
Protocol: as §1, §2, §3, §4, §5, §6, §7, §8

[2] = rabbit 1081, a listed pin number means recognized
[3] = rabbit 1083, a listed pin number means recognized

Row | Sequence | pins (8-aa peptide) recognized by serum (Antibody to CS1; Antibody to CS1, rabbit 1090) | reactivity of 8-mer peptides with antibodies from the rabbits [1] | pins (8-aa peptide) recognized by serum (Antibody to CS1; Antibody to CS1, rabbit 1089) | also measured
1 | ALPSAVAL (listed as Escherichia coli) [compound 24] | 24 | most reactive | – | pins (8-aa peptide) recognized by serum (Antibody to CS2; Antibody to CS2, rabbit 1077): 24; pins (8-aa peptide) recognized by serum (Antibody to CS4; Antibody to CS4, rabbit 940): 24
2 | DGSALPSA (listed as Escherichia coli) [compound 21] | 21 | – | 21 | –
3 | VTASVDPT (listed as Escherichia coli) [compound 7] | 7 | – | – | pins (8-aa peptide) recognized by serum (Antibody to CS2; Antibody to CS2, rabbit 1076): 7; pins (8-aa peptide) recognized by serum (Antibody to CS2; Antibody to CS2, rabbit 1077): 7; pins (8-aa peptide) recognized by serum (Antibody to CS17; Antibody to CS17, rabbit 1084): 7
4 | GSALPSAV (listed as Escherichia coli) [compound 22] | 22 | – | – | pins (8-aa peptide) recognized by serum (Antibody to CS4; Antibody to CS4, rabbit 940): 22
5 | LPSAVALT (listed as Escherichia coli) [compound 25] | – | most reactive | – | pins (8-aa peptide) recognized by serum (Antibody to CS4; Antibody to CS4, rabbit 940): 25
6 | TVTASVDP (listed as Escherichia coli) [compound 6] | 6 | – | – | pins (8-aa peptide) recognized by serum (Antibody to CS17; Antibody to CS17, rabbit 1084): 6
7 | AVALTYSP (listed as Escherichia coli) [compound 28] | 28 | most reactive | 28 | interaction of peptides with the antibodies raised to the consensus peptide [1]: more reliably interactive
8 | IDLLQADG (listed as Escherichia coli) [compound 15] | – | – | – | pins (8-aa peptide) recognized by serum (Antibody to 0166 upper; [2]): 15
9 | SALPSAVA (listed as Escherichia coli) [compound 23] | 23 | most reactive | – | –
10 | VEKNITVT (listed as Escherichia coli) [compound 1] | – | – | – | pins (8-aa peptide) recognized by serum (Antibody to CS17; Antibody to CS17, rabbit 1084): 1; pins (8-aa peptide) recognized by serum (Antibody to CS4; Antibody to CS4, rabbit 940): 1
11 | PSAVALTY (listed as Escherichia coli) [compound 26] | 26 | most reactive | – | pins (8-aa peptide) recognized by serum (Antibody to CS4; Antibody to CS4, rabbit 938): 26; interaction of peptides with the antibodies raised to the consensus peptide [1]: more reliably interactive
12 | ADGSALPS (listed as Escherichia coli) [compound 20] | 20 | – | 20 | –
13 | LLQADGSA (listed as Escherichia coli) [compound 17] | – | – | – | pins (8-aa peptide) recognized by serum (Antibody to 0166 upper; [2]): 17
14 | DLLQADGS (listed as Escherichia coli) [compound 16] | – | – | – | pins (8-aa peptide) recognized by serum (Antibody to 0166 upper; [2]): 16
15 | TASVDPTI (listed as Escherichia coli) [compound 8] | 8 | most reactive | – | pins (8-aa peptide) recognized by serum (Antibody to CS2; Antibody to CS2, rabbit 1076): 8; pins (8-aa peptide) recognized by serum (Antibody to CS2; Antibody to CS2, rabbit 1077): 8; pins (8-aa peptide) recognized by serum (Antibody to CS17; Antibody to CS17, rabbit 1084): 8; pins (8-aa peptide) recognized by serum (Antibody to CS4; Antibody to CS4, rabbit 938): 8
16 | ITVTASVD (listed as Escherichia coli) [compound 5] | – | most reactive | – | –
17 | SVDPTIDL (listed as Escherichia coli) [compound 10] | 10 | most reactive | 10 | pins (8-aa peptide) recognized by serum (Antibody to CS2; Antibody to CS2, rabbit 1076): 10; pins (8-aa peptide) recognized by serum (Antibody to CS2; Antibody to CS2, rabbit 1077): 10; pins (8-aa peptide) recognized by serum (Antibody to 0166 upper; [2]): 10; pins (8-aa peptide) recognized by serum (Antibody to CS4; Antibody to CS4, rabbit 938): 10; pins (8-aa peptide) recognized by serum (Antibody to CS4; Antibody to CS4, rabbit 940): 10; interaction of peptides with the antibodies raised to the consensus peptide [1]: more reliably interactive
18 | VALTYSPA (listed as Escherichia coli) [compound 29] | 29 | most reactive | 29 | –
19 | EKNITVTA (listed as Escherichia coli) [compound 2] | – | most reactive | – | pins (8-aa peptide) recognized by serum (Antibody to 0166 lower; [3]): 2; pins (8-aa peptide) recognized by serum (Antibody to CS17; Antibody to CS17, rabbit 1080): 2; pins (8-aa peptide) recognized by serum (Antibody to CS4; Antibody to CS4, rabbit 940): 2
20 | DPTIDLLQ (listed as Escherichia coli) [compound 12] | 12 | most reactive | 12 | pins (8-aa peptide) recognized by serum (Antibody to 0166 lower; rabbit 1082, a listed pin number means recognized): 12; pins (8-aa peptide) recognized by serum (Antibody to 0166 lower; [3]): 12; pins (8-aa peptide) recognized by serum (Antibody to CS2; Antibody to CS2, rabbit 1076): 12; pins (8-aa peptide) recognized by serum (Antibody to 0166 upper; rabbit 934, a listed pin number means recognized): 12; pins (8-aa peptide) recognized by serum (Antibody to 0166 upper; [2]): 12; pins (8-aa peptide) recognized by serum (Antibody to CS4; Antibody to CS4, rabbit 938): 12; pins (8-aa peptide) recognized by serum (Antibody to CS4; Antibody to CS4, rabbit 940): 12; interaction of peptides with the antibodies raised to the consensus peptide [1]: more reliably interactive
21 | SAVALTYS (listed as Escherichia coli) [compound 27] | 27 | most reactive | – | interaction of peptides with the antibodies raised to the consensus peptide [1]: more reliably interactive
22 | QADGSALP (listed as Escherichia coli) [compound 19] | 19 | – | 19 | –
23 | LQADGSAL (listed as Escherichia coli) [compound 18] | 18 | – | 18 | –
24 | NITVTASV (listed as Escherichia coli) [compound 4] | 4 | most reactive | 4 | pins (8-aa peptide) recognized by serum (Antibody to CS17; Antibody to CS17, rabbit 1080): 4
